This note sets out measurements from publication PMC4879371, “Antitrypanosomal Activities and Mechanisms of Action of Novel Tetracyclic Iridoids from Morinda lucida Benth” (Antimicrobial Agents and Chemotherapy, 2016).

Series [1] has as its system GUTat 3.1 strain of the bloodstream form of T. brucei brucei. Nature of the series: alamarBlue in vitro viability test for trypanosome parasites. The format is cell-based. Particulars: Trypanosoma brucei, 48 h of incubation, read-out: IC50, antitrypanosomal activity. The protocol: The GUTat 3.1 strain of the bloodstream form of T. brucei brucei parasites was used in this study. Parasites were cultured in vitro according to the conditions established previously ([36]). Parasites were used when they reached a confluent concentration of 1 × 10^6 parasites/ml. Estimation of parasitemia was done with the Neubauer counting chamber. Parasites were diluted to a concentration of 3 × 10^5 parasites/ml with HM1-9 medium and were used for the various experiments.
The alamarBlue assay (Life Technologies, USA) was carried out on treated or untreated trypanosome parasites to ascertain their viability. The assay was performed in a 96-well plate following the manufacturer's instructions with modification. Briefly, 1.5 × 10^4 parasites were seeded with varied concentrations of plant material (extracts, fractions, or compounds) ranging from 0.78 μg/ml to […]. Final concentrations of EtOH and dimethyl sulfoxide (DMSO) were kept at <1% and 0.1%, respectively. After incubation of parasites with or without plant extracts or compounds for 24 h at 37°C in 5% CO2, 10% alamarBlue dye was added, and the parasites were incubated another 24 h in darkness. After a total of 48 h, the plate was read for absorbance at 540 nm using the Tecan Sunrise Wako spectrophotometer. The trend curve was drawn to obtain a 50% inhibitory concentration (IC50) of each plant material (extracts, fractions, and compounds).
In general terms: Resazurin is reduced to fluorescent resorufin, in cell work by metabolically active cells.

A short description of series [2]: MTT cytotoxicity assay, NB1RGB. The settings on record: human, NB1RGB skin fibroblast cells; NB1RGB normal skin fibroblast, 48 h. The format is cell-based, human. Here is the method: (§1) The cytotoxicity of the compounds to mammalian cells were determined using four human normal cell lines, namely, NB1RGB (skin fibroblast) and HF-19 (lung fibroblast) obtained from the RIKEN Bio Resource Center Cell Bank (Japan) and Chang Liver and Hs888Lu (lung) obtained from the European Collection of Authenticated Cell Cultures (ECACC). NB1RGB and HF-19 were maintained in minimum essential medium-α (MEM-α). Chang Liver and Hs888Lu were grown in Eagle's minimum essential medium (EMEM) and RPMI 1640, respectively. All of these media were supplemented with 10% fetal bovine serum (FBS) and 1% penicillin-streptomycin and were then incubated at 37°C under 5% CO2 in fully humidified conditions.
(§2) Cytotoxicity was determined using a 3-(4,5-dimethylthiazol-2-yl)-2,5-diphenyltetrazolium bromide (MTT) assay. The cells were treated with molucidin, ML-2-3, or ML-F52 at concentrations of ≤50 μM for 48 h. Cells were plated at a density of 0.5 × 10^4 cells/well into 96-well plates. After 24 h of incubation, cells were treated with various concentrations of each of the purified compounds for 48 h. Then, MTT solution was added to each well, and the cells were incubated for another 4 h. The precipitated MTT-formazan product was dissolved in 0.04 N HCl-isopropanol, and the amount of formazan was measured at a wavelength of 595 nm by a microplate reader (Immuno Mini NJ-2300; Nihon InterMed, Tokyo, Japan). Cytotoxicity was calculated as the percentage of live cells relative to the control culture. The selectivity index (SI) was expressed as the ratio of the IC50 obtained for mammalian cells and the IC50 for trypanosomes.
Background: Tetrazolium dyes change colour on reduction, which living cells bring about.

In series [3] the test system is four human normal cell lines (NB1RGB, HF-19, Chang Liver, Hs888Lu). Nature of the series: MTT cytotoxicity assay, all cell lines tested. It is filed as cell-based. The protocol:
as §1, §2

Series [4] deals with Trypanosoma brucei parasites. The series is described as follows: FACS cell cycle assay, time course. The format is cell-based. The protocol:
Seeding and incubation of parasites with compounds were done under the same conditions as those for the alamarBlue assay as described above without addition of the alarmarBlue reagent. In this case, after 24 h of incubation, Guava reagents for Nexin and cell cycle assays were added, and each assay was performed using the Millipore Guava easyCyte 5HT fluorescence-activated cell sorter (FACS) machine according to the manufacturer's instruction. The Nexin assay and subsequent FACS analysis allowed for detection of markers of apoptosis induction by the plant materials. Similarly, the cell cycle assay and subsequent FACS analysis allowed for detection of markers of cell cycle alteration by the plant materials.
To investigate the sequence in which the events (apoptosis induction, PFR-2 suppression, and cell cycle alteration) involved in mechanisms of action occur, we examined the time course for the three events using ML-2-3-treated parasites. Trypanosoma brucei parasites were incubated for 0, 0.5, 1.5, 3, 6, and 24 h with 15 μM ML-2-3 and were then subjected to both Nexin assay and Western blot analyses using the PFR-2 antibody. We further investigated the time course of cell cycle alteration using ML-2-3-treated parasites at similar concentrations and incubation periods.

In the next series the test system is Plasmodium yoelii. The series is described as follows: Preliminary in vivo studies against Plasmodium yoelii. Particulars: BALB/c mice, unpublished data.

A word on the IC50: it is the point on the concentration scale where inhibition reaches its midpoint.

Take `COc1cc(/C=C2/C(=O)O[C@]34C=C[C@@H]5C(C(=O)O)=CO[C@H](O[C@@H]23)[C@@H]54)ccc1O` [ML-2-3]: the IC50 in series [1] was 3.75 µM. Also, the IC50 at 48 h in series [2] is > 50 µM. For the same compound, the “selectivity index (SI) for all of the cell lines” value in series [3] is listed as > 10. Besides, the “cytotoxicity among all cell lines” value in series [3] (≤50 μM, 48 h) is “did not show any cytotoxicity”. The “time of exposure to significant changes in cell cycle” value in series [4] (15 μM ML-2-3) is ≤ 0.5 h. For the same compound, in series [4] (15 μM, 0.5 h to 24 h), the S-phase cells entry is on record as “stayed stable”. The compound further returned a G2/M-phase cells in series [4] (15 μM, within 0.5 h of exposure, decreased from 31%) of 9%.

For the compound `CCOC(=O)C1=CO[C@@H]2O[C@H]3/C(=C\c4ccc(O)c(OC)c4)C(=O)O[C@]34C=C[C@H]1[C@H]24` [ML-F52], the IC50 in series [1] is 0.43 µM. The compound also displayed an IC50 at 48 h in series [2] of 4.74 µM. The “selectivity index (SI) for all of the cell lines” value in series [3] is reported as > 10.

For `COC(=O)C1=CO[C@@H]2O[C@H]3/C(=C\c4ccc(O)c(OC)c4)C(=O)O[C@]34C=C[C@H]1[C@H]24` [molucidin], in series [1], the IC50 is 1.27 µM. Also, in series [2], half-maximal inhibition (IC50 at 48 h) required 7.11 µM. Moreover, the “efficacy against Plasmodium yoelii in vivo” value in the series with Plasmodium yoelii is given as “significant efficacy”.
